Reference: PubChem BioAssay (NCI)
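Following 48 hours of exposure in 96-well plates, responses at five concentrations were used to interpolate endpoints linearly. The concentration for 50% growth inhibition is given as GI50. TGI: total growth inhibition.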

Each compound was assayed on A549 NSCLC (assay: NCI anticancer screen, dose series, 48 h).

Structure (SMILES)	TGI [µM]	GI50 [µM]
O=c1[nH][nH]c(=O)n1Cc1ccccc1Cn1c(=O)[nH][nH]c1=O	> 100	–
CC1C=C(CCCCCCCCCCCC[C@@H](O)[C@@H]2CC[C@@H]([C@@H]3CC[C@@H](C(O)CCCCCCCCCCCCC4=C[C@H](C)OC4=O)O3)O2)C(=O)O1 (stereo not given in full)	> 100	–
CCNC(=S)N/N=C/c1cc([N+](=O)[O-])ccc1O	> 100	–
COc1cc([C@@H]2OCC3C(c4ccc5c(c4)OCO5)OCC32)cc(OC)c1OC (stereo not given in full)	> 100	–
CCOC(=O)c1c2ccccc2n2c(N)c(C(N)=O)nnc12	> 100	–
Cc1cc(N(CCC#N)CCC#N)ccc1/C(N=Nc1ccc(Cl)cc1)=N\NC(=O)c1ccccc1	> 100	–
CC[C@@]1(O)C(=O)OCc2c1cc1n(c2=O)Cc2c-1nc1ccccc1c2/C=N\NC(=O)CN	> 100	–
CCc1ccc(CCN2CCCCC2)nc1	> 100	–
N#CN=C(N(Cc1ccccc1)Cc1ccccc1)N(Cc1ccccc1)Cc1ccccc1	> 100	–
CNC(=O)C(C)C1CCC2(C)C=CC(=O)C(C)=C2C1O (stereo not given)	> 90.2	–
O=C(NNC(=O)c1ccccc1SSc1ccccc1C(=O)NNC(=O)c1ccccc1S)c1ccccc1S	> 100	–
CCOC(=O)C(NC(C)=O)(Nc1ccc(F)cc1)C(F)(F)F (stereo not given)	> 100	–
CCOc1cc2c(cc1O)/C(=N\OC)C[C@@H]1[C@@H]2CC[C@]2(C)[C@@H](O)CC[C@@H]12	> 100	–
O=C1/C(=C/c2ccc(O)cc2)CC/C1=C\c1ccc(O)cc1	> 100	–
CC(C)C1/C(=N/O)CC(c2ccccc2)N(N=O)C1c1ccccc1 (stereo not given)	> 100	–
CC1(C)N=C(/C(Cl)=[N+](/[O-])C(=O)c2ccc(F)cc2)C(C)(C)N1O	> 100	–
COc1cc(/C=C2\S/C(=N/Nc3nc(-c4ccc(Br)cc4)cs3)NC2=O)cc(OC)c1OC	56.7	–
COC(=O)[C@H]1CO[C@@H](C(C)(C)C)N1C(=O)N1C=CC(=O)C[C@@H]1C	> 100	–
CCCNC1=C2CC(C)CC(OC)[C@@H](O)[C@H](C)/C=C(\C)C(OC(N)=O)C(OC)/C=C\C=C(/C)C(=O)NC(=CC1=O)C2=O (stereo not given in full)	27.9	0.514
C[n+]1c2ccccc2c(/C=N\NS(=O)(=O)c2ccc(O)c(C(=O)O)c2)c2ccccc21	> 100	–

Structure (SMILES)	TGI [µM]	GI50 [µM]
O=C(Nc1ccc(C2=NCCN2)cc1)c1cncc(C(=O)Nc2ccc(C3=NCCN3)cc2)c1	> 100	–
Clc1ccc(/C=C/c2nc3ccccc3s2)cc1Cl	> 100	–
CCC1(O)CC2CC(=O)OC2C1O (stereo not given)	> 100	–
Cc1ccc(SCC(CSCCO)OCn2cnc3c2NC(N)=NC32OCCO2)cc1 (stereo not given)	> 100	–
C(/c1ccco1)=c1/nc(-c2ccccc2)n2c1nc1ccccc12	> 100	–
NC(=O)C(c1ccccc1)N1OC2C(=O)N(c3ccccc3)C(=O)C2C1c1c2ccccc2c(Cl)c2ccccc12 (stereo not given)	> 100	–
CC[C@@]1(C[C@H]2C[C@@]3(C(=O)OC)c4[nH]c5ccccc5c4CCN3C2=O)COC2(CCCCC2)O1	> 100	–
O=S1(=O)NC(=NCc2c[nH]c3ccccc23)N(c2ccccc2)c2ccncc21	> 100	–
CC(C)CCCCCCCCCCCCC(=O)NCC(=O)NC1C(C)OC(Nc2ncnc3c2ncn3C)C(O)C1O (stereo not given)	> 100	–
COc1ccc(CNc2nc(NCc3ccc(OC)c(OC)c3)nc(NC3CCCCC3)n2)cc1	> 100	–
CCOC(=O)Nn1c(C)nnc1-c1ccccc1	> 100	–
Cc1cn(C2CC(n3cc(Cn4cc(I)c(=O)[nH]c4=O)nn3)C(CO)O2)c(=O)[nH]c1=O (stereo not given)	> 100	–
O=C1CCC(=O)N1n1c(Cc2ccccc2)n[nH]c1=O	> 100	–
Oc1cc2c3c(c1)c1cc4c(cc1c[n+]3CC2)OCO4	> 88.5	–
Cc1cn(C2CC(N(O)C(N)=O)C(CO)O2)c(=O)[nH]c1=O (stereo not given)	> 100	–
O=C1CCC23CC(C=CC=C12)n1c(=O)n(-c2ccccc2)c(=O)n13 (stereo not given)	> 100	–
CC(=O)NC1=C(NCCC(C)C)C(=O)c2ccccc2C1=O	> 50	–
O=C(Cc1cccs1)N[C@@H]1C(=O)N2C(C(=O)OC(c3ccccc3)c3ccccc3)=C(CO)CS[C@H]12	> 100	–
CC1=C(C)[C@@]2(C)O[C@@]2(C)O[C@@]2(C)O[C@@]12C	> 100	–
O=C([O-])CC(=O)[O-].O=C([O-])CC(=O)[O-].[K+].[Pd+2]	> 100	> 100

The compounds below were run on ACHN renal (assay: NCI anticancer screen, dose series, 48 h).

Structure (SMILES)	TGI [µM]
O=c1[nH][nH]c(=O)n1Cc1ccccc1Cn1c(=O)[nH][nH]c1=O	> 100
CC1C=C(CCCCCCCCCCCC[C@@H](O)[C@@H]2CC[C@@H]([C@@H]3CC[C@@H](C(O)CCCCCCCCCCCCC4=C[C@H](C)OC4=O)O3)O2)C(=O)O1 (stereo not given in full)	> 100
CCNC(=S)N/N=C/c1cc([N+](=O)[O-])ccc1O	> 100
COc1cc([C@@H]2OCC3C(c4ccc5c(c4)OCO5)OCC32)cc(OC)c1OC (stereo not given in full)	> 100
CCOC(=O)c1c2ccccc2n2c(N)c(C(N)=O)nnc12	26.6
Cc1cc(N(CCC#N)CCC#N)ccc1/C(N=Nc1ccc(Cl)cc1)=N\NC(=O)c1ccccc1	> 100
CCc1ccc(CCN2CCCCC2)nc1	> 100
N#CN=C(N(Cc1ccccc1)Cc1ccccc1)N(Cc1ccccc1)Cc1ccccc1	> 100
